Results: the supplement of paper PMC10307832

Experiments:
Test in all cases: relative viability (nuclei count vs DMSO), 5 days (fraction); higher = more cells survive
Kobe2602 + Alpelisib = compound: C1=CC(=CC=C1NC(=S)NNC2=C(C=C(C=C2[N+](=O)[O-])C(F)(F)F)[N+](=O)[O-])F [Kobe2602] + Cc1nc(NC(=O)N2CCC[C@H]2C(N)=O)sc1-c1ccnc(C(C)(C)C(F)(F)F)c1 [Alpelisib] (partner 2 µM)
In short: (§1)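 Relative viability is defined as nuclei in treated wells over nuclei in vehicle wells. Duplicate plates were run and medians reported. Lung cancer cell lines in 1536-well plates were dosed by pin tool one day after seeding, with one drug or with a fixed anchor-drug dose plus five library-drug doses (not always all listed) in √10 steps, and nuclei were counted after 5 days.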

Kobe2602 + Olaparib = compound: C1=CC(=CC=C1NC(=S)NNC2=C(C=C(C=C2[N+](=O)[O-])C(F)(F)F)[N+](=O)[O-])F [Kobe2602] + O=C(c1cc(Cc2n[nH]c(=O)c3ccccc23)ccc1F)N1CCN(C(=O)C2CC2)CC1 [Olaparib] (partner 8 µM)
In short: as §1

[1] = compound: COc1cc2nccc(Oc3ccc(NC(=O)C4(C(=O)Nc5ccc(F)cc5)CC4)cc3)c2cc1OC [Cabozantinib] + CC(=O)Nc1cccc(-n2c(=O)n(C3CC3)c(=O)c3c(Nc4ccc(I)cc4F)n(C)c(=O)c(C)c32)c1 [Trametinib] (partner 0.02 µM)
In short: as §1

Cabozantinib + Lapatinib = compound: COc1cc2nccc(Oc3ccc(NC(=O)C4(C(=O)Nc5ccc(F)cc5)CC4)cc3)c2cc1OC [Cabozantinib] + CS(=O)(=O)CCNCc1ccc(-c2ccc3ncnc(Nc4ccc(OCc5cccc(F)c5)c(Cl)c4)c3c2)o1 [Lapatinib] (partner 2 µM)
In short: as §1

Row | Cell Line | relative viability (Kobe2602 + Alpelisib; first compound 0.2 µM) | relative viability (Kobe2602 + Alpelisib; first compound 0.6325 µM) | relative viability (Kobe2602 + Alpelisib; first compound 2 µM) | relative viability (Kobe2602 + Alpelisib; first compound 6.325 µM) | relative viability (Kobe2602 + Alpelisib; first compound 20 µM) | relative viability (Kobe2602 + Olaparib; first compound 0.2 µM) | relative viability (Kobe2602 + Olaparib; first compound 0.6325 µM) | relative viability (Kobe2602 + Olaparib; first compound 2 µM) | relative viability (Kobe2602 + Olaparib; first compound 6.325 µM) | relative viability (Kobe2602 + Olaparib; first compound 20 µM) | relative viability ([1]; first compound 0.02 µM) | relative viability ([1]; first compound 0.06325 µM) | relative viability ([1]; first compound 0.2 µM) | relative viability ([1]; first compound 0.6325 µM) | relative viability ([1]; first compound 2 µM) | relative viability (Cabozantinib + Lapatinib; first compound 0.02 µM) | relative viability (Cabozantinib + Lapatinib; first compound 0.06325 µM) | relative viability (Cabozantinib + Lapatinib; first compound 0.2 µM) | relative viability (Cabozantinib + Lapatinib; first compound 0.6325 µM) | relative viability (Cabozantinib + Lapatinib; first compound 2 µM)
1 | NCI-H1993 | 0.67 | 0.844 | 0.591 | 0.669 | 0.666 | 0.853 | 1.07 | 0.922 | 0.918 | 1.26 | 0.508 | 0.531 | 0.526 | 0.436 | 0.571 | 0.76 | 0.807 | 0.792 | 0.725 | 0.814
2 | NCI-H2009 | 1.12 | 1.22 | 1.13 | 1.3 | 1.18 | 0.685 | 0.701 | 0.735 | 0.714 | 0.736 | 0.276 | 0.281 | 0.293 | 0.275 | 0.24 | 1.06 | 0.959 | 1 | 0.965 | 0.941
3 | NCI-H2023 | 0.561 | 0.58 | 0.588 | 0.516 | 0.498 | 0.496 | 0.566 | 0.511 | 0.446 | 0.166 | 0.497 | 0.707 | 0.445 | 0.381 | 0.293 | 0.473 | 0.74 | 0.708 | 0.552 | 0.591
4 | NCI-H2085 | 1.04 | 0.99 | 0.894 | 1.01 | 1.05 | 0.768 | 0.835 | 0.848 | 0.809 | 0.799 | 0.876 | 0.6 | 0.571 | 0.463 | 0.398 | 0.793 | 0.881 | 0.676 | 0.728 | 0.643
5 | NCI-H2087 | 1.27 | 1.08 | 1.09 | 1.11 | 1.03 | 0.564 | 0.696 | 0.705 | 0.639 | 0.637 | 0.166 | 0.258 | 0.216 | 0.195 | 0.209 | 1.09 | 1.18 | 1.02 | 1.01 | 0.982
6 | NCI-H2126 | 0.688 | 0.817 | 0.726 | 0.735 | 0.806 | 0.868 | 0.892 | 0.905 | 0.929 | 0.926 | 0.534 | 0.594 | 0.568 | 0.589 | 0.578 | 0.612 | 0.843 | 0.723 | 0.75 | 0.77
7 | NCI-H2170 | 0.807 | 0.86 | 0.794 | 0.726 | 0.772 | 0.561 | 0.574 | 0.53 | 0.597 | 0.625 | 0.927 | 0.921 | 0.896 | 0.922 | 0.95 | 0.263 | 0.302 | 0.16 | 0.353 | 0.27
8 | NCI-H2228 | 0.724 | 0.712 | 0.747 | 0.713 | 0.776 | 0.738 | 0.576 | 0.689 | 0.593 | 0.629 | 0.4 | 0.61 | 0.594 | 0.704 | 0.479 | 1.08 | 1.41 | 1.11 | 1 | 1.06
